Source: ChEMBL document CHEMBL1135270, “New highly active taxoids from 9 beta-dihydrobaccatin-9,10-acetals” (2002)
≈ marks a conversion by molar mass, not a printed value.

Assays:
PC-6 [1] = assay: Growth inhibition of 50% of human small cell lung cancer (PC-6) cell line in MTT assay; format: functional
PC-6 [2] = assay: Growth inhibition of 50% of vincristine-resistant cell line expressing P-glycoprotein (PC-6/VCR) in MTT assay; format: functional; conditions: Homo sapiens

C=CC1O[C@@H]2C3=C(C)[C@@H](OC(=O)[C@H](O)[C@@H](NC(=O)OC(C)(C)C)c4ccco4)C[C@@](O)([C@@H](OC(=O)c4ccccc4)[C@@H]4[C@]5(OC(C)=O)CO[C@@H]5C[C@H](O)[C@@]4(C)[C@@H]2O1)C3(C)C (stereo not given in full)
GI50 (PC-6 [1]): 0.743 ng/mL (≈ 0.887 nM) | GI50 (PC-6 [2]): 1.27 ng/mL (≈ 1.52 nM)

CC(=O)O[C@@]12CO[C@@H]1C[C@H](O)[C@@]1(C)[C@@H]3OC(C)(C)O[C@@H]3C3=C(C)[C@@H](OC(=O)[C@H](O)[C@@H](NC(=O)OC(C)(C)C)c4ccco4)C[C@@](O)([C@@H](OC(=O)c4ccccc4)[C@H]21)C3(C)C
GI50 (PC-6 [1]): 0.331 ng/mL (≈ 0.394 nM) | GI50 (PC-6 [2]): 1.88 ng/mL (≈ 2.24 nM)

COc1ccc(C2O[C@@H]3C4=C(C)[C@@H](OC(=O)[C@H](O)[C@@H](NC(=O)OC(C)(C)C)c5ccco5)C[C@@](O)([C@@H](OC(=O)c5ccccc5)[C@@H]5[C@]6(OC(C)=O)CO[C@@H]6C[C@H](O)[C@@]5(C)[C@@H]3O2)C4(C)C)cc1 (stereo not given in full)
GI50 (PC-6 [1]): 6.26 ng/mL (≈ 6.82 nM) | GI50 (PC-6 [2]): 9.25 ng/mL (≈ 10.1 nM)

CC(=O)O[C@@]12CO[C@@H]1C[C@H](O)[C@@]1(C)[C@H](O)[C@H](O)C3=C(C)[C@@H](OC(=O)[C@H](O)[C@@H](NC(=O)OC(C)(C)C)c4ccco4)C[C@@](O)([C@@H](OC(=O)c4ccccc4)[C@H]21)C3(C)C
GI50 (PC-6 [1]): 21 ng/mL (≈ 26.3 nM) | GI50 (PC-6 [2]): 422 ng/mL (≈ 528 nM)

C=CC1O[C@@H]2C3=C(C)[C@@H](OC(=O)[C@H](O)[C@@H](NC(=O)OC(C)(C)C)c4ccccc4)C[C@@](O)([C@@H](OC(=O)c4ccccc4)[C@@H]4[C@]5(OC(C)=O)CO[C@@H]5C[C@H](O)[C@@]4(C)[C@@H]2O1)C3(C)C (stereo not given in full)
GI50 (PC-6 [1]): 0.365 ng/mL (≈ 0.43 nM) | GI50 (PC-6 [2]): 4.64 ng/mL (≈ 5.47 nM)
